In ChEMBL document CHEMBL1159158, “Cyclic urea HIV protease inhibitors containing alkynyl- and alkenyl-tethered heterocycles in the P2 region” (Bioorg Med Chem Lett, 1996):
pKi: −log10 of the molar value.

Molecular target: T1, Human immunodeficiency virus type 1 protease (Human immunodeficiency virus 1, UniProt Q72874)
Assay: Binding affinity to HIV-protease

Structure (SMILES)	pKi
CC1(C)O[C@@H]2[C@@H](O1)[C@@H](Cc1ccccc1)N(CC#Cc1cncnc1)C(=O)N(CC#Cc1cncnc1)[C@@H]2Cc1ccccc1	≤ 6.00
COCCOCn1cc(C#CCN2C(=O)N(CC#Cc3cnn(COCCOC)c3)[C@H](Cc3ccccc3)[C@H](O)[C@@H](O)[C@H]2Cc2ccccc2)cn1	≤ 6.00
O=C1N(CC#Cc2cn[nH]c2)[C@H](Cc2ccccc2)[C@H](O)[C@@H](O)[C@@H](Cc2ccccc2)N1CC#Cc1cn[nH]c1	≤ 6.00
CC(C)(C)OC(=O)n1cc(C#CCN2C(=O)N(CC#Cc3cnn(C(=O)OC(C)(C)C)c3)[C@H](Cc3ccccc3)[C@H](O)[C@@H](O)[C@H]2Cc2ccccc2)cn1	≤ 6.00
O=C1N(CC#Cc2cccs2)[C@H](Cc2ccccc2)[C@H](O)[C@@H](O)[C@@H](Cc2ccccc2)N1CC#Cc1cccs1	≤ 6.00
O=C1N(CC#Cc2cnc3ccccc3c2)[C@H](Cc2ccccc2)[C@H](O)[C@@H](O)[C@@H](Cc2ccccc2)N1CC#Cc1cnc2ccccc2c1	≤ 6.00
CC1(C)O[C@@H]2[C@@H](O1)[C@@H](Cc1ccccc1)N(CC#Cc1cccnc1)C(=O)N(CC#Cc1cccnc1)[C@@H]2Cc1ccccc1	≤ 6.00
O=C1N(CC#CCN2CCOCC2)[C@H](Cc2ccccc2)[C@H](O)[C@@H](O)[C@@H](Cc2ccccc2)N1CC#CCN1CCOCC1	≤ 6.00
O=C1N(CC#Cc2ccsc2)[C@H](Cc2ccccc2)[C@H](O)[C@@H](O)[C@@H](Cc2ccccc2)N1CC#Cc1ccsc1	≤ 6.00
CC1(C)O[C@@H]2[C@@H](O1)[C@@H](Cc1ccccc1)N(CC#Cc1cccs1)C(=O)N(CC#Cc1cccs1)[C@@H]2Cc1ccccc1	≤ 6.00
C#CCN1C(=O)N(CC#C)[C@H](Cc2ccccc2)[C@@H]2OC(C)(C)O[C@H]2[C@H]1Cc1ccccc1	7.66
CC1(C)O[C@@H]2[C@@H](O1)[C@@H](Cc1ccccc1)N(CC#Cc1cc3ccccc3cn1)C(=O)N(CC#Cc1cc3ccccc3cn1)[C@@H]2Cc1ccccc1	≤ 6.00

The remaining lines, values ahead:

pKi	Structure (SMILES)
≤ 6.00	CC(C)(C)OC(=O)n1cc(C#CCN2C(=O)N(CC#Cc3cnn(C(=O)OC(C)(C)C)c3)[C@H](Cc3ccccc3)[C@@H]3OC(C)(C)O[C@H]3[C@H]2Cc2ccccc2)cn1
≤ 6.00	CCN(CC)CC#CCN1C(=O)N(CC#CCN(CC)CC)[C@H](Cc2ccccc2)[C@H](O)[C@@H](O)[C@H]1Cc1ccccc1
≤ 6.00	CC1(C)O[C@@H]2[C@@H](O1)[C@@H](Cc1ccccc1)N(CC#Cc1ccsc1)C(=O)N(CC#Cc1ccsc1)[C@@H]2Cc1ccccc1
≤ 6.00	O=C1N(CC#CCN2CCCCC2)[C@H](Cc2ccccc2)[C@H](O)[C@@H](O)[C@@H](Cc2ccccc2)N1CC#CCN1CCCCC1
≤ 6.00	CC1(C)O[C@@H]2[C@@H](O1)[C@@H](Cc1ccccc1)N(CC#Cc1cnc3ccccc3c1)C(=O)N(CC#Cc1cnc3ccccc3c1)[C@@H]2Cc1ccccc1
≤ 6.00	O=C1N(CC#Cc2cccnc2)[C@H](Cc2ccccc2)[C@H](O)[C@@H](O)[C@@H](Cc2ccccc2)N1CC#Cc1cccnc1
≤ 6.00	COCCOCn1cc(C#CCN2C(=O)N(CC#Cc3cnn(COCCOC)c3)[C@H](Cc3ccccc3)[C@@H]3OC(C)(C)O[C@H]3[C@H]2Cc2ccccc2)cn1
≤ 6.00	CC(C)(C)OC(=O)C1CCCN1CC#CCN1C(=O)N(CC#CCN2CCCC2C(=O)OC(C)(C)C)[C@H](Cc2ccccc2)[C@H](O)[C@@H](O)[C@H]1Cc1ccccc1 (stereo partly drawn)
≤ 6.00	O=C1N(CC#Cc2cc3ccccc3cn2)[C@H](Cc2ccccc2)[C@H](O)[C@@H](O)[C@@H](Cc2ccccc2)N1CC#Cc1cc2ccccc2cn1
≤ 6.00	CC(C)N(CC#CCN1C(=O)N(CC#CCN(C(C)C)C(C)C)[C@H](Cc2ccccc2)[C@H](O)[C@@H](O)[C@H]1Cc1ccccc1)C(C)C
≤ 6.00	O=C1N(CC#Cc2cncnc2)[C@H](Cc2ccccc2)[C@H](O)[C@@H](O)[C@@H](Cc2ccccc2)N1CC#Cc1cncnc1
≤ 6.00	CC1(C)O[C@@H]2[C@@H](O1)[C@@H](Cc1ccccc1)N(CC#Cc1cn[nH]c1)C(=O)N(CC#Cc1cn[nH]c1)[C@@H]2Cc1ccccc1

Molecular target: Human immunodeficiency virus type 1 protease (Human immunodeficiency virus 1) (UniProt Q72874)
Assay: Compound was evaluated for its antiviral activity against HIV-Protease in cell based assay.

Structure (SMILES)	IC90 [nM]
O=C1N(C/C=C/c2cn[nH]c2)[C@H](Cc2ccccc2)[C@H](O)[C@@H](O)[C@@H](Cc2ccccc2)N1CC1CC1	820
O=C1N(C/C=C/c2cn[nH]c2)[C@H](Cc2ccccc2)[C@H](O)[C@@H](O)[C@@H](Cc2ccccc2)N1C/C=C/c1cn[nH]c1	370

Molecular target: T1, Human immunodeficiency virus type 1 protease
Assay: Compound was evaluated for binding affinity towards HIV-Protease enzyme.

Structure (SMILES)	pKi
O=C1N(C/C=C/c2cn[nH]c2)[C@H](Cc2ccccc2)[C@H](O)[C@@H](O)[C@@H](Cc2ccccc2)N1CC1CC1	9.39
O=C1N(C/C=C/c2cn[nH]c2)[C@H](Cc2ccccc2)[C@H](O)[C@@H](O)[C@@H](Cc2ccccc2)N1C/C=C/c1cn[nH]c1	9.60
